Measurements from the NIST ThermoML archive (doi:10.1021/je9006037).
Numbers after ± are expanded uncertainties.

Key:
[1] = refractive index (Na D-line) (dimensionless); xn = mol fraction of the nth substance listed; conditions: 101 kPa, Liquid
[2] = 298.15 K; 101.33 kPa; Liquid

CCn1cc[n+](C)c1.O=S(=O)([O-])C(F)(F)F [1-ethyl-3-methylimidazolium trifluoromethanesulfonate] + CCO
refractive index, [1]
Conditions | 288.15 K | 298.15 K | 308.15 K | 318.15 K | 328.15 K
x1 = 0.05087 | 1.37603 ± 0.0012 | 1.37224 ± 0.0012 | 1.36847 ± 0.0012 | 1.3647 ± 0.0012 | 1.36088 ± 0.0012
x1 = 0.1004 | 1.38531 ± 0.0012 | 1.38169 ± 0.0012 | 1.37828 ± 0.0012 | 1.37496 ± 0.0012 | 1.37123 ± 0.0012
x1 = 0.1504 | 1.39279 ± 0.0012 | 1.38937 ± 0.0012 | 1.38635 ± 0.0012 | 1.38336 ± 0.0012 | 1.3795 ± 0.0012
x1 = 0.201 | 1.39891 ± 0.0012 | 1.39566 ± 0.0012 | 1.39241 ± 0.0012 | 1.38923 ± 0.0012 | 1.38584 ± 0.0012
x1 = 0.2991 | 1.40822 ± 0.0013 | 1.40549 ± 0.0013 | 1.40179 ± 0.0013 | 1.39872 ± 0.0013 | 1.39607 ± 0.0013
x1 = 0.3976 | 1.41506 ± 0.0013 | 1.41187 ± 0.0013 | 1.40885 ± 0.0013 | 1.40581 ± 0.0013 | 1.40267 ± 0.0013
x1 = 0.4976 | 1.42051 ± 0.0013 | 1.41741 ± 0.0013 | 1.41441 ± 0.0013 | 1.41137 ± 0.0013 | 1.40841 ± 0.0013
x1 = 0.5935 | 1.4247 ± 0.0013 | 1.42164 ± 0.0013 | 1.41857 ± 0.0013 | 1.41564 ± 0.0013 | 1.41275 ± 0.0013
x1 = 0.6981 | 1.42832 ± 0.0013 | 1.42536 ± 0.0013 | 1.42243 ± 0.0013 | 1.41956 ± 0.0013 | 1.41673 ± 0.0013
x1 = 0.7994 | 1.43116 ± 0.0013 | 1.42826 ± 0.0013 | 1.42543 ± 0.0013 | 1.42262 ± 0.0013 | 1.41981 ± 0.0013
x1 = 0.8407 | 1.4322 ± 0.0013 | 1.42937 ± 0.0013 | 1.42653 ± 0.0013 | 1.42372 ± 0.0013 | 1.42093 ± 0.0013
x1 = 0.892 | 1.43344 ± 0.0013 | 1.43061 ± 0.0013 | 1.42781 ± 0.0013 | 1.42501 ± 0.0013 | 1.42222 ± 0.0013
x1 = 0.9444 | 1.43452 ± 0.0013 | 1.43172 ± 0.0013 | 1.42894 ± 0.0013 | 1.42619 ± 0.0013 | 1.42346 ± 0.0013
x1 = 1 | 1.43599 ± 0.0013 | 1.43322 ± 0.0013 | 1.4304 ± 0.0013 | 1.42767 ± 0.0013 | 1.42494 ± 0.0013

CCn1cc[n+](C)c1.O=S(=O)([O-])C(F)(F)F [1-ethyl-3-methylimidazolium trifluoromethanesulfonate]
Conditions | mass density [kg/m3]
[2] | 1383.58 ± 4.8

CC(C)O [propan-2-ol]
Conditions | mass density [kg/m3]
[2] | 780.89 ± 0.31

CCO [ethanol] + CCn1cc[n+](C)c1.O=S(=O)([O-])C(F)(F)F
[1], x2 = 0
Conditions | refractive index
288.15 K | 1.36358 ± 0.0012
298.15 K | 1.3593 ± 0.0012
308.15 K | 1.35503 ± 0.0012
318.15 K | 1.35073 ± 0.0012
328.15 K | 1.3463 ± 0.0012

CCn1cc[n+](C)c1.O=S(=O)([O-])C(F)(F)F [1-ethyl-3-methylimidazolium trifluoromethanesulfonate] + CO
refractive index, [1]
Conditions | 288.15 K | 298.15 K | 308.15 K | 318.15 K
x1 = 0.04981 | 1.35401 ± 0.0012 | 1.35019 ± 0.0012 | 1.34673 ± 0.0012 | 1.34425 ± 0.0012
x1 = 0.1006 | 1.37019 ± 0.0012 | 1.36654 ± 0.0012 | 1.3636 ± 0.0012 | 1.36131 ± 0.0012
x1 = 0.1503 | 1.38187 ± 0.0012 | 1.37846 ± 0.0012 | 1.37522 ± 0.0012 | 1.37261 ± 0.0012
x1 = 0.2002 | 1.39131 ± 0.0012 | 1.38786 ± 0.0012 | 1.38479 ± 0.0012 | 1.38175 ± 0.0012
x1 = 0.2516 | 1.39849 ± 0.0013 | 1.39527 ± 0.0013 | 1.39212 ± 0.0013 | 1.38903 ± 0.0013
x1 = 0.3018 | 1.40415 ± 0.0013 | 1.40103 ± 0.0013 | 1.3983 ± 0.0013 | 1.39535 ± 0.0013
x1 = 0.3977 | 1.41297 ± 0.0013 | 1.40987 ± 0.0013 | 1.40694 ± 0.0013 | 1.40394 ± 0.0013
x1 = 0.499 | 1.41931 ± 0.0013 | 1.4163 ± 0.0013 | 1.41325 ± 0.0013 | 1.41035 ± 0.0013
x1 = 0.5911 | 1.42382 ± 0.0013 | 1.42086 ± 0.0013 | 1.41783 ± 0.0013 | 1.41502 ± 0.0013
x1 = 0.7059 | 1.42818 ± 0.0013 | 1.42529 ± 0.0013 | 1.42236 ± 0.0013 | 1.41954 ± 0.0013
x1 = 0.8054 | 1.43127 ± 0.0013 | 1.42843 ± 0.0013 | 1.42553 ± 0.0013 | 1.42265 ± 0.0013
x1 = 0.8494 | 1.43236 ± 0.0013 | 1.42952 ± 0.0013 | 1.42665 ± 0.0013 | 1.42387 ± 0.0013
x1 = 0.9013 | 1.43359 ± 0.0013 | 1.4308 ± 0.0013 | 1.42799 ± 0.0013 | 1.42515 ± 0.0013
x1 = 1 | 1.43599 ± 0.0013 | 1.43322 ± 0.0013 | 1.4304 ± 0.0013 | 1.42767 ± 0.0013

CCO [ethanol]
Conditions | mass density [kg/m3]
[2] | 785.1 ± 0.31

CC(C)O [propan-2-ol] + CCn1cc[n+](C)c1.O=S(=O)([O-])C(F)(F)F
[1], x2 = 0
Conditions | refractive index
288.15 K | 1.37924 ± 0.0012
298.15 K | 1.37492 ± 0.0012
308.15 K | 1.37048 ± 0.0012
318.15 K | 1.36586 ± 0.0012
328.15 K | 1.36103 ± 0.0012
338.15 K | 1.35599 ± 0.0012

CO [methanol] + CCn1cc[n+](C)c1.O=S(=O)([O-])C(F)(F)F
[1], x2 = 0
Conditions | refractive index
288.15 K | 1.33071 ± 0.0012
298.15 K | 1.32653 ± 0.0012
308.15 K | 1.32237 ± 0.0012
318.15 K | 1.3182 ± 0.0012

CO [methanol]
Conditions | mass density [kg/m3]
[2] | 786.49 ± 0.31

CCCO [propan-1-ol]
Conditions | mass density [kg/m3]
[2] | 799.56 ± 0.61

CCCO [propan-1-ol] + CCn1cc[n+](C)c1.O=S(=O)([O-])C(F)(F)F
[1], x2 = 0
Conditions | refractive index
288.15 K | 1.38732 ± 0.0012
298.15 K | 1.38318 ± 0.0012
308.15 K | 1.37897 ± 0.0012
318.15 K | 1.37471 ± 0.0012
328.15 K | 1.37036 ± 0.0012
338.15 K | 1.36587 ± 0.0012
